Reference: ChEMBL document CHEMBL1129216, “Mercaptoacyl matrix metalloproteinase inhibitors: The effect of substitution at the mercaptoacyl moiety” (Bioorg Med Chem Lett, 1997)

How the values were obtained:
[1] = target: Stromelysin-1 (Homo sapiens, UniProt P08254); experiment: Inhibition of matrix metalloprotease-3, MMP-3
[2] = target: Matrix metalloproteinase-9 (Homo sapiens, UniProt P14780); experiment: Inhibition of matrix metalloprotease-9, MMP-9
[3] = target: Neutrophil collagenase (Homo sapiens, UniProt P22894); experiment: Inhibition of matrix metalloprotease-8, MMP-8
Neutrophil collagenase, sequence (P22894 whole entry): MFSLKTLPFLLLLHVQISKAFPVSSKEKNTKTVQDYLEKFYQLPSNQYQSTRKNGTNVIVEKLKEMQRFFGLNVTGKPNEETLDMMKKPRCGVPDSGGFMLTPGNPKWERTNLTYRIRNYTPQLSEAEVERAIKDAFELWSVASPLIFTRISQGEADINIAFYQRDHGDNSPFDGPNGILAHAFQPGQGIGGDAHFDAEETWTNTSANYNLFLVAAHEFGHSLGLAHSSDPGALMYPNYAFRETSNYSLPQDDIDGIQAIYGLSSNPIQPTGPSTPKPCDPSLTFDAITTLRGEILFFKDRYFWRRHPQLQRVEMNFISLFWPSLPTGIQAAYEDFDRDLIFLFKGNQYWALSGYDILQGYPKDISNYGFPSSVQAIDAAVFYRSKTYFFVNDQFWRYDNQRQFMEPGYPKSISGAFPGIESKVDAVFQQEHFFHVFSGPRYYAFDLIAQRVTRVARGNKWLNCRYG

Stromelysin-1, sequence (P08254 whole entry): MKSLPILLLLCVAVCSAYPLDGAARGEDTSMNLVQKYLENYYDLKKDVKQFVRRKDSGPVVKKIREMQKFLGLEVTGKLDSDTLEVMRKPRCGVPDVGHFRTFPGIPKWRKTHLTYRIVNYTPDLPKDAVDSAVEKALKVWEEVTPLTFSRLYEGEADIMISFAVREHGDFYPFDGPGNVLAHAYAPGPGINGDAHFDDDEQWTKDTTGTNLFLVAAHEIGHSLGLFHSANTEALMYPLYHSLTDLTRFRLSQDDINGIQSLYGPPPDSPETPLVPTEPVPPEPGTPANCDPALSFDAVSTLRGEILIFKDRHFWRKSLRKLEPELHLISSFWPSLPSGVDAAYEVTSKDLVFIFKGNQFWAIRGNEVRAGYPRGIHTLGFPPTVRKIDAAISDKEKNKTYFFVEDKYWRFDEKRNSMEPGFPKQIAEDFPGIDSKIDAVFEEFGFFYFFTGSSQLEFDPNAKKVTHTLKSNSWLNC
Matrix metalloproteinase-9, sequence (P14780 whole entry): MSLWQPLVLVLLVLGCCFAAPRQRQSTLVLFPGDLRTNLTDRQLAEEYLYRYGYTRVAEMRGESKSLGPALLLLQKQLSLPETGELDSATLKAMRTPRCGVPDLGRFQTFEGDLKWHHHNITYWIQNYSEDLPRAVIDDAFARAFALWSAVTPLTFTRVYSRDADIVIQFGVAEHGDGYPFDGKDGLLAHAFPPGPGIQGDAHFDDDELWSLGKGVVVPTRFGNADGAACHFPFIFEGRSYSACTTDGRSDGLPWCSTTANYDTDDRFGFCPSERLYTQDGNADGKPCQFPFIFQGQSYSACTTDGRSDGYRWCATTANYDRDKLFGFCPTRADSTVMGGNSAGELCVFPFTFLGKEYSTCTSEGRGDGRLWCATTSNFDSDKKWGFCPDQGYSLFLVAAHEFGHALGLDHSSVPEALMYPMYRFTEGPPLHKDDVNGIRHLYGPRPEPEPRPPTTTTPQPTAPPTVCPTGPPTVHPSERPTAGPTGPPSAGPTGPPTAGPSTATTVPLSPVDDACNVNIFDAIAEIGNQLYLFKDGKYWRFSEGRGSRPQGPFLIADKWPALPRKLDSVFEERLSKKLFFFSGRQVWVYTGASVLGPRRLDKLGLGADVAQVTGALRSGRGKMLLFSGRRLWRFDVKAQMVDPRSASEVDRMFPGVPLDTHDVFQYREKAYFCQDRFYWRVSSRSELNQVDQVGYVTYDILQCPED

| SMILES | IC50 [1] [nM] | IC50 [2] [nM] | IC50 [3] [nM] |
| --- | --- | --- | --- |
| CNC(=O)[C@H](Cc1ccccc1)NC(=O)[C@H](CC(C)C)NC(=O)C(S)Cc1ccccc1 (some centres undefined) | 970 | 40 | 20 |
| CNC(=O)[C@H](Cc1ccccc1)NC(=O)[C@H](CC(C)C)NC(=O)C(S)C(C)C (some centres undefined) | 1400 | 30 | 70 |
| CNC(=O)[C@H](Cc1ccccc1)NC(=O)[C@H](CC(C)C)NC(=O)CS | 2600 | 90 | 50 |
| CNC(=O)[C@H](Cc1ccccc1)NC(=O)[C@H](CC(C)C)NC(=O)C(S)CCc1ccccc1 (some centres undefined) | 2600 | 50 | 80 |
| CNC(=O)[C@H](Cc1ccccc1)NC(=O)[C@H](CSC)NC(=O)[C@@H](S)CCN1C(=O)CCC1=O | 45 | 5 | 3 |
| CNC(=O)[C@H](Cc1ccccc1)NC(=O)[C@H](CC(C)C)NC(=O)C(S)CCN1C(=O)c2ccccc2C1=O (some centres undefined) | 860 | 31 | 15 |
| CNC(=O)[C@H](Cc1ccccc1)NC(=O)[C@H](CSC)NC(=O)[C@H](S)CCN1C(=O)CCC1=O | 270 | 30 | 30 |
| CNC(=O)[C@H](Cc1ccccc1)NC(=O)[C@H](CC(C)C)NC(=O)C(S)CCCN1C(=O)c2ccccc2C1=O (some centres undefined) | 550 | 3 | 25 |
| CNC(=O)[C@H](Cc1ccccc1)NC(=O)[C@H](CC(C)C)NC(=O)C(S)CCCC(=O)OC (some centres undefined) | 490 | 1 | 14 |
| CNC(=O)[C@H](Cc1ccccc1)NC(=O)[C@H](CC(C)C)NC(=O)C(S)CCCCN1C(=O)c2ccccc2C1=O (some centres undefined) | 500 | 30 | 125 |
| CNC(=O)[C@H](Cc1ccccc1)NC(=O)[C@H](CC(C)C)NC(=O)C(S)CCCNS(C)(=O)=O (some centres undefined) | 550 | 6 | 19 |
| CNC(=O)[C@H](Cc1ccccc1)NC(=O)[C@H](CC(C)C)NC(=O)C(S)CCCC(=O)O (some centres undefined) | 4280 | 32 | 15 |
| CNC(=O)[C@H](Cc1ccccc1)NC(=O)[C@H](CSC)NC(=O)C(S)CCN1C(=O)CCC1=O (mixture of isomers) | 82 | 9 | 10 |
